Measured values: patent US20230023559A1, “ARYLMETHYLENE HETEROCYCLIC COMPOUNDS AS KV1.3 POTASSIUM SHAKER CHANNEL BLOCKERS” (D. E. Shaw Research, LLC, priority 2019, published 2023)

Experiments:
Kv1.3 potassium channel = target: T1, Kv1.3 potassium channel (Homo sapiens, UniProt P22001); assay: Kv1.3 potassium channel blocker activity, automated whole-cell patch clamp (Patchliner); format: cell-based; settings: CHO-K1 cells stably expressing Kv1.3; whole cell current inhibition; read-out: Kv1.3_IC50
T1 construct: expressed in transfected cells
How it was run: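 Peak-current block was recorded on stable Kv1.3 CHO-K1 cells by automated patch clamp, stepping from a −90 mV holding potential to +40 mV for 100 ms at 0.1 Hz with 10 s breaks between trains. Online P/4 leak subtraction, 10 kHz sampling; compound exposure under 10 s per train.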

hERG channel = hERG channel (Homo sapiens, UniProt Q12809); assay: hERG electrophysiology, automated whole-cell patch clamp (Patchliner)
Chain of hERG channel (Q12809 whole entry): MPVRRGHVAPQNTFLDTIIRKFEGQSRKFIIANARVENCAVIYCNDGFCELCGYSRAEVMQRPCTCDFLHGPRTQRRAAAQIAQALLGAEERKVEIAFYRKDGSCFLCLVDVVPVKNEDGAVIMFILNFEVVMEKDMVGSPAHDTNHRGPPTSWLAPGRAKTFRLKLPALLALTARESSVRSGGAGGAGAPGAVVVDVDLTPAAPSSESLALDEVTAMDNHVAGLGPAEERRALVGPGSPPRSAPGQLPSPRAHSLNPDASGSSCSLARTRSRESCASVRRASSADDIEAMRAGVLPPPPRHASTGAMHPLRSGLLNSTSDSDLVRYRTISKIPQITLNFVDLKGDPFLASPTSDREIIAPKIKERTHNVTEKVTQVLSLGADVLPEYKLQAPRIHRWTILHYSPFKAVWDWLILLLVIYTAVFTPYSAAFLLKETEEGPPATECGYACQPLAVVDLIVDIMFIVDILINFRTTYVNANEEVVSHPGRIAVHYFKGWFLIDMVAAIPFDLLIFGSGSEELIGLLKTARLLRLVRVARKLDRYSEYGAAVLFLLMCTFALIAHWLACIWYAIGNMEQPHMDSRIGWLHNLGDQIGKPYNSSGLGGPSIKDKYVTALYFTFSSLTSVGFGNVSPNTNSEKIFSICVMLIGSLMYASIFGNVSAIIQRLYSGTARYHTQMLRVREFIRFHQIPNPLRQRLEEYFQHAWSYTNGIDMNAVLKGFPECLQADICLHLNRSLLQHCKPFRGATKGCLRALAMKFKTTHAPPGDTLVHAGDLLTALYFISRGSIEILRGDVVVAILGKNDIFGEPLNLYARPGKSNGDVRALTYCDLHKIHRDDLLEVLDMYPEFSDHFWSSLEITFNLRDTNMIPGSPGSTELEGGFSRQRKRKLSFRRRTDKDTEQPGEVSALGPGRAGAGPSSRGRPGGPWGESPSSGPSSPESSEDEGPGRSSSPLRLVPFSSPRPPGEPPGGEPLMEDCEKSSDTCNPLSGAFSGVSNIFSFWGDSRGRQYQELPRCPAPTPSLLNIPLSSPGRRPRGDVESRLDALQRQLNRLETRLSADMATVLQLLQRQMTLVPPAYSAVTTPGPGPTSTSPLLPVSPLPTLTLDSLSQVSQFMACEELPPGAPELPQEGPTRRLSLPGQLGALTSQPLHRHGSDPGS
Method: CHO-K1 cells stably expressing hERG were grown in Ham's F-12 Medium with Glutamine containing 10% heat-inactivated FBS, 1% Penicillin/Streptomycin, Hygromycin (100 μg/ml) and G418 (100 μg/ml). Cells were grown in culture flasks at 37° C. in a 5% CO2-humidified incubator.
The cells were bathed in an extracellular solution containing 140 mM NaCl, 4 mM KCl, 2 mM CaCl2), 1 mM MgCl2, 5 mM Glucose, 10 mM HEPES; pH adjusted to 7.4 with NaOH; 295-305 mOsm. The internal solution contained 50 mM KCl, 10 mM NaCl, 60 mM KF, 20 mM EGTA, 10 mM HEPES; pH adjusted to 7.2 with KOH; 285 mOsm. All compounds were dissolved in DMSO at 30 mM. Compound stock solutions were freshly diluted with external solution to concentrations of 30 nM, 100 nM, 300 nM, 1 μM, 3 μM, 10 μM, 30 μM and 100 μM. The highest content of DMSO (0.3%) was present in 100 μM.
The voltage protocol (see Table B) was designed to simulate voltage changes during a cardiac action potential with a 300 ms depolarization to +20 mV (analogous to the plateau phase of the cardiac action potential), a repolarization for 300 ms to −50 mV (inducing a tail current) and a final step to the holding potential of −80 mV. The pulse frequency was 0.3 Hz. Control (compound-free) and compound pulse trains for each compound concentration applied contained 70 pulses.
Whole cell current recordings and compound application were enabled by means of an automated patch clamp platform Patchliner (Nanion). EPC 10 patch clamp amplifier (HEKA) along with Patchmaster software (HEKA Elektronik Dr. Schulze GmbH) was used for data acquisition. Data were sampled at 10 kHz without filtering. Increasing compound concentrations were applied consecutively to the same cell without washouts in between.
AUC and PEAK values were obtained with Patchmaster (HEKA Elektronik Dr. Schulze GmbH). To determine IC50 the last single pulse in the pulse train corresponding to a given compound concentration was used. Obtained AUC and PEAK values in the presence of compound were normalized to control values in the absence of compound. Using Origin (OridinLab), IC50 was derived from data fit to Hill equation: Icompound/Icontrol=(100−A)/(1+([compound]/IC50)nH)+A, where IC50 is the concentration at which current inhibition is half-maximal, [compound] is the applied compound concentration, A is the fraction of current that is not blocked and nH is the Hill coefficient.

T1 sequence (P22001 whole entry): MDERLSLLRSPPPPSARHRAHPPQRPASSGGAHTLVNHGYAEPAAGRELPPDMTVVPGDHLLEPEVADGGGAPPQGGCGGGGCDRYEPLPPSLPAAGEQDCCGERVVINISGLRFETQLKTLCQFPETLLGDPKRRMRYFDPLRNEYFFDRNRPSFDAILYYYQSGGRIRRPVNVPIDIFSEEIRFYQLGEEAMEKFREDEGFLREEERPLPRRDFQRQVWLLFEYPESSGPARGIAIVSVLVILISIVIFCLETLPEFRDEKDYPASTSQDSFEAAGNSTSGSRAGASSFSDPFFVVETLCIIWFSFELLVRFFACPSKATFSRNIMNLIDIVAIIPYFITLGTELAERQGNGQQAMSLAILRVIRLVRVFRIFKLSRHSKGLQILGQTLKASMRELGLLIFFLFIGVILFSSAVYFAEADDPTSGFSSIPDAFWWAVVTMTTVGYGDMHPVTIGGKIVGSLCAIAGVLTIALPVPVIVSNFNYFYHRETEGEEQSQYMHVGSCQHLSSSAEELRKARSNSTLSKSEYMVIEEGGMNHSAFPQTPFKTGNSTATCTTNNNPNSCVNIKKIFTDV

Row | SMILES | IC50 (Kv1.3 potassium channel) [µM] | IC50 (hERG channel) [µM]
1 | O=C([C@@H]1CCNC1)N1CCC(Cc2c(O)ccc(Cl)c2Cl)CC1 [Compound 122, 3,4-dichloro-2-([1-[(3R)-pyrrolidine-3-carbonyl]piperidin-4-yl]methyl)phenol Trifluoroacetic Acid] | < 0.5 | < 30
2 | CNC(c1cc(Cl)c(Cl)cc1O)C1CCN(C(=O)[C@H](O)CO)CC1 (stereo partly drawn) [Compound 196, (2R)-1-[4-[(4,5-dichloro-2-hydroxyphenyl)(methylamino)methyl]piperidin-1-yl]-2,3-dihydroxypropan-1-one] | < 10 | > 30
3 | NC(c1cc(Cl)c(Cl)cc1O)C1CCN(C(=O)c2ccccc2)CC1 (centres unmarked) [Compound 68, 2-[amino(1-benzoylpiperidin-4-yl)methyl]-4,5-dichlorophenol Trifluoroacetic Acid] | < 10 | < 30
4 | NC(c1cc(Cl)c(Cl)cc1O)C1CC2CCC(C1)N2 (centres unmarked) [Compound 42, 2-[amino(8-azabicyclo[3.2.1]octan-3-yl)methyl]-4,5-dichlorophenol Trifluoroacetic Acid] | < 10 | > 30
5 | CC1(C(=O)N2CCC([C@@H](N)c3cc(Cl)c(Cl)cc3O)CC2)CNC1 [Compound 109, (R)-(4-(amino(4,5-dichloro-2-hydroxyphenyl)methyl)piperidin-1-yl)(3-methylazetidin-3-yl)methanone] | < 0.5 | > 30
6 | CC(=O)N1CC(C(=O)N2CCC([C@@H](N)c3cc(Cl)c(Cl)cc3O)CC2)C1 [Compound 200, 1-(3-[4-[(R)-amino(4,5-dichloro-2-hydroxyphenyl)methyl]piperidine-1-carbonyl]azetidin-1-yl)ethan-1-one] | < 10 | > 30
7 | CC(=O)NC(c1cc(Cl)c(Cl)cc1O)C1CCNCC1 (centres unmarked) [Compound 11, N-[(4,5-dichloro-2-hydroxyphenyl)(piperidin-4-yl)methyl]acetamide] | < 10 | > 30
8 | Oc1cc(Cl)c(Cl)cc1C(O)C1CCNCC1 (centres unmarked) [Compound 2, 4,5-dichloro-2-[hydroxy(piperidin-4-yl)methyl]phenol] | < 10 | > 30
9 | Cc1cc(O)c([C@H](N)C2CCN(C(=O)c3c[nH]c(=O)c(C#N)c3)CC2)cc1Cl [Compound 280, (R)-5-(4-(amino (5-chloro-2-hydroxy-4-methylphenyl)methyl)piperidine-1-carbonyl)-2-oxo-1,2-dihydro-pyridine-3-carbonitrile] | < 0.5 | > 30
10 | N[C@@H](c1cc(Cl)c(Cl)cc1O)C1CCN(C(=O)C2(O)CC2)CC1 [Compound 140, 2-[(R)-amino[1-(1-hydroxycyclo-propanecarbonyl)piperidin-4-yl]methyl]-4,5-dichlorophenol trifluoroacetic acid] | < 10 | < 30
11 | O=C([C@@H]1CCNC1)N1CCC([C@@H](O)c2cc(Cl)c(Cl)cc2O)CC1 (single isomer, unassigned) [Compound 116] | < 0.5 | > 30
12 | N[C@@H](c1cc(Cl)c(Cl)cc1O)C1CCN(C(=O)[C@@H]2CCN2)CC1 [Compound 100, 2-[(R)-amino([1-[(2S)-azetidine-2-carbonyl]piperidin-4-yl])methyl]-4,5-dichlorophenol] | < 0.5 | > 30
13 | N[C@@H](c1cc(Cl)c(Cl)cc1O)C1CCN(C(=O)N2CCNCC2)CC1 [Compound 141, 2-[(R)-amino[1-(piperazine-1-carbonyl)piperidin-4-yl]methyl]-4,5-dichlorophenol Trifluoroacetic Acid] | < 0.5 | > 30
14 | N[C@@H](c1cc(Cl)c(Cl)cc1O)C1CCN(C(=O)N2CC(O)(CO)C2)CC1 [Compound 220, 1-[4-[(R)-amino(4,5-dichloro-2-hydroxyphenyl)methyl]piperidine-1-carbonyl]-3-(hydroxymethyl)azetidin-3-ol] | < 0.5 | > 30
15 | Cc1cc(O)c([C@H](N)C2CCN(C(=O)[C@@H]3OCC[C@@H]3O)CC2)cc1Cl [Compound 335, (2R,3S)-2-[4-[(R)-amino(5-chloro-2-hydroxy-4-methylphenyl)methyl]piperidine-1-carbonyl]oxolan-3-ol trifluoroacetic acid] | < 0.5 | > 30
16 | O=S(=O)([C@H]1CCNC1)N1CCC([C@H](O)c2cc(Cl)c(Cl)cc2O)CC1 (single isomer, unassigned; isomer 3) [Compound 121, 4,5-dichloro-2-(hydroxy(1-(pyrrolidin-3-ylsulfonyl)piperidin-4-yl)methyl)phenol Isomer 3] | < 0.5 | > 30
17 | N[C@@H](c1cc(Cl)c(Cl)cc1O)C1CCN(C(=O)CCO)CC1 [Compound 133, 1-[4-[(R)-amino(4,5-dichloro-2-hydroxyphenyl)methyl]piperidin-1-yl]-3-hydroxypropan-1-one trifluoroacetic acid] | < 0.5 | > 30
18 | N[C@@H](c1cc(Cl)c(Cl)cc1O)C1CCN(C(=O)[C@H]2C[C@H](O)C2)CC1 [Compound 139, 2-[(R)-amino([1-[(1R,3R)-3-hydroxycyclo-butanecarbonyl]piperidin-4-yl])methyl]-4,5-dichlorophenol trifluoroacetic acid] | < 0.5 | > 30
19 | COCCS(=O)(=O)N1CCC([C@@H](N)c2cc(Cl)c(Cl)cc2O)CC1 [Compound 132, 2-[(R)-amino[1-(2-methoxyethanesulfonyl)piperidin-4-yl]methyl]-4,5-dichlorophenol Trifluoroacetic Acid] | < 10 | < 30
20 | N[C@@H](c1cc(Cl)c(Cl)cc1O)[C@@H]1CCNC1 (single isomer, unassigned; diastereoisomer 2) [Compound 33, 2-(amino(pyrrolidin-3-yl)methyl)-4,5-dichlorophenol Trifluoroacetic Acid Diastereoisomer 2] | < 10 | > 30
21 | Cc1cc(O)c([C@H](N)C2CCN(C(=O)c3c[nH]c(=O)c(C)c3)CC2)cc1Cl [Compound 262, 5-[4-[(R)-amino (5-chloro-2-hydroxy-4-methylphenyl)methyl]piperidine-1-carbonyl]-3-methyl-1H-pyridin-2-one trifluoroacetic acid] | < 0.5 | > 30
22 | N[C@@H](c1cc(Cl)c(Cl)cc1O)C1CCN(C(=O)[C@@H]2CCNC2)CC1 (single isomer, unassigned) [Compound 80] | < 0.5 | > 30
23 | N[C@@H](c1cc(Cl)c(Cl)cc1O)C1CCN(C(=O)[C@@H]2CNCCO2)CC1 [Compound 99, (4-((R)-amino(4,5-dichloro-2-hydroxyphenyl)methyl)piperidin-1-yl)((S)-morpholin-2-yl)methanone] | < 0.5 | > 30
24 | NC(c1cc(Cl)c(Cl)cc1O)C1CCN(CC2CC2)CC1 (centres unmarked) [Compound 51, 2-[amino[1-(cyclopropylmethyl)piperidin-4-yl]methyl]-4,5-dichlorophenol Trifluoroacetic Acid] | < 10 | > 30
25 | N[C@@H](c1cc(Cl)c(Cl)cc1O)C1CCN(C(=O)NCCO)CC1 [Compound 209, 4-[(R)-amino(4,5-dichloro-2-hydroxyphenyl)methyl]-N-(2-hydroxyethyl)piperidine-1-carboxamide Trifluoroacetic Acid] | < 0.5 | > 30
